Results as given in PubChem BioAssay (NCI).
Where “and” joins values, the source holds several entries; their conditions need not be identical. Equal entries are not always repeated.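 Exposure lasted 48 hours, with cells grown in 96-well plates and compounds tested at five concentrations. GI50: concentration for 50% inhibition of growth. TGI is the concentration that stops growth completely.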

Each molecule was assayed on OVCAR-8 ovarian (assay: inhibition of tumour cell growth, NCI panel, 48 h).

| Structure (SMILES) | GI50 | TGI |
| --- | --- | --- |
| COc1ccc(Sc2[nH]c(C(C)=O)c3ccccc23)cc1 | 16.4 µM | 36.8 µM |
| CC12C/C(=C\c3ccccc3)C(=O)C3C1CCCC32 | – | > 100 µM |
| OC(CC1SCCCS1)c1ccccc1 (centres undefined) | – | > 100 µM |
| CCCCOC(=O)CNC(=O)OC/C=C/C#CC#C/C=C/COC(=O)NCC(=O)OCCCC | > 100 µM | > 100 µM |
| COc1ccc(OC)c2c1[nH]c(=O)c1c3ccccc3cn21 | 1.26 µM | 3.36 µM |
| COc1cccc2c1C(=O)c1c(O)c3c(c(O)c1C2=O)C[C@@](O)(C(=O)CO)C[C@@H]3OC1CC(N)CC(C)O1 (some centres undefined) | 0.0359 µM and 0.052 µM | 1.13 µM and 0.546 µM |
| O=C1c2ccccc2C(=O)N1CCn1ccc(NC(c2ccccc2)(c2ccccc2)c2ccccc2)nc1=O | – | > 100 µM |
| CC(C)(C)NNC(=O)CCn1[nH]c(=O)c(Cl)c(Cl)c1=O | – | > 100 µM |
| CN(C)CCNC(=O)c1cccc2ccc(-c3ccc(O)cc3)nc12 | – | 4.13 µM |
| CCC12CCCN(Cc3ccccc3)C1c1c(n(C)c3ccccc13)CC2 (centres undefined) | – | > 253 µM |
| CSc1nc(=O)n(CCC#N)nc1SC | – | > 100 µM |
| COc1cc(Nc2ncccc2C(=O)NCc2cn(Cc3cccc(Oc4ccccc4)c3)nn2)cc(OC)c1 | 5.96 µM | > 100 µM |
| COc1cc(-c2oc(=O)ccc2C#Cc2ccccn2)cc(OC)c1OC | 3.89 µM | > 100 µM |
| COC(=O)C1c2cc3c(cc2C(OC2OC(C)C(OC)C(C)(OC)C2OC)CC1(C)O)C(=O)c1c(O)cc2c(c1C3=O)OC1OC2(C)C(O)C([N+](C)(C)[O-])C1O (centres undefined) | – | 4.22 µM |
| CC(C)N(C(=O)C12C3C4C1C1C4(C#N)C3C12C#N)C(C)C (centres undefined) | – | > 100 µM |
| O=C1CCC(Cl)=CC2CCCN12 (centres undefined) | – | > 100 µM |
| COc1ccc(/C=C\[N+](=O)[O-])cc1OC | 2.84 µM | 11.1 µM |
| c1ccc2cc(-c3cc4ccccc4s3)ccc2c1 | – | > 100 µM |
| NC(=O)/C=C/C(=O)c1c(Cl)cccc1Cl | 1.75 µM | 3.27 µM |
| CCC(=O)CC(=O)CCC(=O)Nc1cc(C)ccc1C | – | > 100 µM |
| NC(N)=N/N=C/c1c(-c2ccsc2)nc2sccn12 | 31.1 µM | 61.7 µM |
| CC(=O)Nc1ccc(S(=O)(=O)N2C(=O)CCC2C(=O)Nc2ccc(Br)cc2)cc1 (centres undefined) | 2.6 µM | 11.9 µM |
| CC(=O)CCn1ncc(Cl)c(Cl)c1=O | – | 54.9 µM |
| CO/N=C(/C)c1cccc(Nc2cc(-n3nnc4ccccc43)nc3ccccc23)c1 | 87.1 µM | > 100 µM |
| CN1CC(=O)N2Cc3ccccc3-n3cccc3C2C1 (centres undefined) | – | > 100 µM |
| NC(=S)N/N=C/C(=O)O | > 100 µM | > 100 µM |

Each molecule was assayed on RXF 393 renal (assay: inhibition of tumour cell growth, NCI panel, 48 h).

| Structure (SMILES) | GI50 | TGI |
| --- | --- | --- |
| Clc1ccc2c(c1)[nH]c1c2nc2ccccn21 | 26.6 µM and 11.7 µM | 68.3 µM and 24.2 µM |
| CCOC(=O)c1cnc2c(ccc3[nH]n(C)nc32)c1=O | – | 95.5 µM |
| NC(=S)N/N=C(\CC1OC(=O)c2ccccc21)c1ccc(Cl)cc1 (centres undefined) | – | 49 µM |
| COc1ccc2occ(CCC(=O)O)c2c1 | – | > 100 µM |
| COC(=O)C(C(=O)c1ccccc1)C(C(=O)C(=O)Nc1ccc(OC)cc1OC)C(=O)C(=O)c1ccc(C)cc1 (centres undefined) | – | > 100 µM |
| CC1(C)COC(C2(C)C(=O)C=C(c3ccccc3)c3ccccc32)=N1 (centres undefined) | – | > 100 µM |
| O=C(Nc1ccn(CCO)c(=O)n1)c1ccccc1 | – | > 100 µM |
| O=C1CCC2(c3ccc(Cl)cc3)Nc3ncccc3N12 (centres undefined) | – | > 100 µM |
| COc1ccc(Sc2[nH]c(C(C)=O)c3ccccc23)cc1 | 13.6 µM | 39 µM |
| C#CCOc1cccc(-c2ncc3cc(NC(=O)CCl)ccc3n2)c1 | 1.64 µM | 3.09 µM |
| OC(CC1SCCCS1)c1ccccc1 (centres undefined) | – | > 100 µM |
| CCCCOC(=O)CNC(=O)OC/C=C/C#CC#C/C=C/COC(=O)NCC(=O)OCCCC | > 100 µM | > 100 µM |
| COc1ccc(OC)c2c1[nH]c(=O)c1c3ccccc3cn21 | 1.5 µM | 3.01 µM |
| COc1cccc2c1C(=O)c1c(O)c3c(c(O)c1C2=O)C[C@@](O)(C(=O)CO)C[C@@H]3OC1CC(N)CC(C)O1 (some centres undefined) | 0.122 µM and 0.0806 µM | 0.298 µM and 0.369 µM |
| O=C1c2ccccc2C(=O)N1CCn1ccc(NC(c2ccccc2)(c2ccccc2)c2ccccc2)nc1=O | – | 35.5 µM |
| CC(C)(C)NNC(=O)CCn1[nH]c(=O)c(Cl)c(Cl)c1=O | – | > 100 µM |
| O=CCC1CCCCC1 | – | > 100 µM |

| Structure (SMILES) | GI50 | TGI |
| --- | --- | --- |
| CN(C)CCNC(=O)c1cccc2ccc(-c3ccc(O)cc3)nc12 | 5.65 µM | 17.4 µM and 19.8 µM |
| CCC12CCCN(Cc3ccccc3)C1c1c(n(C)c3ccccc13)CC2 (centres undefined) | – | > 253 µM |
| COc1cc(Nc2ncccc2C(=O)NCc2cn(Cc3cccc(Oc4ccccc4)c3)nn2)cc(OC)c1 | 3.77 µM | > 100 µM |
| Cc1cc(Nc2ccc(NC(=O)c3ccc(Nc4ccnc5ccccc45)cc3)cc2)nc(N)n1 | 2.76 µM | 9.82 µM |
| COc1cc(-c2oc(=O)ccc2C#Cc2ccccn2)cc(OC)c1OC | 0.273 µM | 2.09 µM |
| COC(=O)C1c2cc3c(cc2C(OC2OC(C)C(OC)C(C)(OC)C2OC)CC1(C)O)C(=O)c1c(O)cc2c(c1C3=O)OC1OC2(C)C(O)C([N+](C)(C)[O-])C1O (centres undefined) | – | 0.977 µM |
| CC(C)N(C(=O)C12C3C4C1C1C4(C#N)C3C12C#N)C(C)C (centres undefined) | – | > 100 µM |
| O=C1CCC(Cl)=CC2CCCN12 (centres undefined) | – | > 100 µM |
| COc1ccc(/C=C\[N+](=O)[O-])cc1OC | 1.81 µM | 3.43 µM |
| CC(C)C(CCl)NC(=O)c1cccc(C(=O)N[C@H](CCl)C(C)C)n1 (stereo in doubt) | – | > 100 µM |
| NC(=O)/C=C/C(=O)c1c(Cl)cccc1Cl | 0.601 µM | 1.4 µM |
| CCC(=O)CC(=O)CCC(=O)Nc1cc(C)ccc1C | – | > 100 µM |
| NC(N)=N/N=C/c1c(-c2ccsc2)nc2sccn12 | 17.9 µM | 40 µM |
| CC(=O)Nc1ccc(S(=O)(=O)N2C(=O)CCC2C(=O)Nc2ccc(Br)cc2)cc1 (centres undefined) | 2.31 µM | 6.28 µM |
| CC(=O)CCn1ncc(Cl)c(Cl)c1=O | – | 32.9 µM |
| CN1CC(=O)N2Cc3ccccc3-n3cccc3C2C1 (centres undefined) | – | > 100 µM |

What follows are molecules tested on SF-539 CNS (assay: inhibition of tumour cell growth, NCI panel, 48 h).

| Structure (SMILES) | TGI | GI50 |
| --- | --- | --- |
| Clc1ccc2c(c1)[nH]c1c2nc2ccccn21 | 50.3 µM and 30.6 µM | – |
| NC(=S)N/N=C(\CC1OC(=O)c2ccccc21)c1ccc(Cl)cc1 (centres undefined) | 44.9 µM | – |
| COc1ccc2occ(CCC(=O)O)c2c1 | > 100 µM | – |
| COC(=O)C(C(=O)c1ccccc1)C(C(=O)C(=O)Nc1ccc(OC)cc1OC)C(=O)C(=O)c1ccc(C)cc1 (centres undefined) | > 100 µM | – |
| CC1(C)COC(C2(C)C(=O)C=C(c3ccccc3)c3ccccc32)=N1 (centres undefined) | > 100 µM | – |
| O=C(Nc1ccn(CCO)c(=O)n1)c1ccccc1 | > 100 µM | – |
| O=C1CCC2(c3ccc(Cl)cc3)Nc3ncccc3N12 (centres undefined) | > 100 µM | – |
| COc1ccc(Sc2[nH]c(C(C)=O)c3ccccc23)cc1 | 27.6 µM | 14.5 µM |
| C#CCOc1cccc(-c2ncc3cc(NC(=O)CCl)ccc3n2)c1 | 2.92 µM | 1.51 µM |
| CC12C/C(=C\c3ccccc3)C(=O)C3C1CCCC32 | > 100 µM | – |
| OC(CC1SCCCS1)c1ccccc1 (centres undefined) | > 100 µM | – |
| CCCCOC(=O)CNC(=O)OC/C=C/C#CC#C/C=C/COC(=O)NCC(=O)OCCCC | > 100 µM | > 100 µM |
| COc1ccc(OC)c2c1[nH]c(=O)c1c3ccccc3cn21 | 3.08 µM | 1.69 µM |
| COc1cccc2c1C(=O)c1c(O)c3c(c(O)c1C2=O)C[C@@](O)(C(=O)CO)C[C@@H]3OC1CC(N)CC(C)O1 (some centres undefined) | 0.194 µM and 0.211 µM | 0.0189 µM and 0.0471 µM |
| O=C1c2ccccc2C(=O)N1CCn1ccc(NC(c2ccccc2)(c2ccccc2)c2ccccc2)nc1=O | 30.6 µM | – |
| CC(C)(C)NNC(=O)CCn1[nH]c(=O)c(Cl)c(Cl)c1=O | > 100 µM | – |
| O=CCC1CCCCC1 | > 100 µM | – |
| CN(C)CCNC(=O)c1cccc2ccc(-c3ccc(O)cc3)nc12 | 15.1 µM and 13.9 µM | – |
| CCC12CCCN(Cc3ccccc3)C1c1c(n(C)c3ccccc13)CC2 (centres undefined) | > 253 µM | – |
| CSc1nc(=O)n(CCC#N)nc1SC | > 100 µM | – |
| COc1cc(Nc2ncccc2C(=O)NCc2cn(Cc3cccc(Oc4ccccc4)c3)nn2)cc(OC)c1 | > 100 µM | 4.39 µM |
| COc1cc(-c2oc(=O)ccc2C#Cc2ccccn2)cc(OC)c1OC | 13.8 µM | 3.03 µM |
